For orientation: IC50 means the concentration that gives 50% inhibition.

The values that follow come from patent US20090239841A1, “Diaryl Ureas as CB1 Antagonists” (priority 2004, published 2009).

T1 sequence (P21554 whole entry): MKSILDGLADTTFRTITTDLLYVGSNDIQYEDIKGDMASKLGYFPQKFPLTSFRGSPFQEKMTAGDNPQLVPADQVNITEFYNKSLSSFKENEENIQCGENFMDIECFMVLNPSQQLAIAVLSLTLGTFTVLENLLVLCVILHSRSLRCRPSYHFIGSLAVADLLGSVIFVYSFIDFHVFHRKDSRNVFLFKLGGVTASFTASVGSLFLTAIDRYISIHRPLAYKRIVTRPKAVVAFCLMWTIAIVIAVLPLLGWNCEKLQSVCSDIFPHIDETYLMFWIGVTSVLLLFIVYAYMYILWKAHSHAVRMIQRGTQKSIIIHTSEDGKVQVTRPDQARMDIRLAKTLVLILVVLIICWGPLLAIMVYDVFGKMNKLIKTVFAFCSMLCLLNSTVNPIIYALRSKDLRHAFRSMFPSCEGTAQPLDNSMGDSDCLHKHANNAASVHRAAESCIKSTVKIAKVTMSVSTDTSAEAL

This assay has as its target T1, hCB1 (Homo sapiens, UniProt P21554).
T1 construct: made in house; host or cells: Sf9 insect cells (baculovirus), P2 membranes
Kind of assay: Agonist-induced GTP binding (GTPγ35S) assay at CB1, Example 8. The format is biochemical. The following applies: IC50 at CB1, determined as described in Example 8; read-out: IC50. In short, it runs like this:
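Membranes from Sf9 cells co-expressing hCB1 and heterotrimeric G-protein (10 μg protein) in Tris pH 7.4 buffer with 5 μM GDP. Test compounds (10^−10–10^−5 M) competed against 1 nM CP55,940 with […] GTPγ35S, 60 min at room temperature. Filter-bound radioactivity by scintillation, expressed as percent above basal.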
Regarding `CC(=O)c1ccc(NC(=O)Nc2ccc(C)cc2)cc1` [Compound 338, 1-(4-acetylphenyl)-3-(4-methylphenyl)urea], the IC50 is below 2000 nM.
The result for `CC(=O)c1ccc(NC(=O)Nc2cccc(F)c2)cc1` [Compound 339, 1-(4-acetylphenyl)-3-(3-fluorophenyl)urea] reads below 2000 nM; that for `CC(=O)c1ccc(NC(=O)Nc2ccc(F)cc2)cc1` [Compound 340, 1-(4-acetylphenyl)-3-(4-fluorophenyl)urea], below 2000 nM; that for `CCc1cccc(NC(=O)Nc2ccc(C(C)=O)cc2)c1` [Compound 341, 1-(4-acetylphenyl)-3-(3-ethylphenyl)urea], below 2000 nM.
As for `CC(=O)c1ccc(NC(=O)Nc2cccc(Cl)c2)cc1` [Compound 342, 1-(4-acetylphenyl)-3-(3-chlorophenyl)urea], the IC50 is below 2000 nM.
The result for `CC(=O)c1ccc(NC(=O)Nc2ccc(Cl)cc2)cc1` [Compound 344, 1-(4-acetylphenyl)-3-(4-chlorophenyl)urea] reads below 2000 nM.
The result for `CC(C)c1ccc(NC(=O)Nc2ccc(C#N)cc2)cc1` [Compound 345, 1-(4-cyanophenyl)-3-(4-isopropylphenyl)urea] reads below 2000 nM; that for `CC(C)c1ccc(NC(=O)Nc2cccc(C#N)c2)cc1` [Compound 346, 1-(3-cyanophenyl)-3-(4-isopropylphenyl)urea], below 2000 nM; that for `CC(=O)c1cccc(NC(=O)Nc2ccc(C(C)C)cc2)c1` [Compound 347, 1-(3-acetylphenyl)-3-(4-isopropylphenyl)urea], below 2000 nM.
Regarding `CC(=O)c1ccc(NC(=O)Nc2ccc(C(C)C)cc2)cc1` [Compound 348, 1-(4-acetylphenyl)-3-(4-isopropylphenyl)urea], the IC50 was below 2000 nM.
In the case of `CCCc1ccc(NC(=O)Nc2ccc(C#N)cc2)cc1` [Compound 349, 1-(4-cyanophenyl)-3-(4-propylphenyl)urea] it was below 2000 nM; in that of `CCCc1ccc(NC(=O)Nc2cccc(C#N)c2)cc1` [Compound 350, 1-(3-cyanophenyl)-3-(4-propylphenyl)urea], below 2000 nM; in that of `CCCc1ccc(NC(=O)Nc2cccc(C(C)=O)c2)cc1` [Compound 351, 1-(3-acetylphenyl)-3-(4-propylphenyl)urea], below 2000 nM.
The result for `CCCc1ccc(NC(=O)Nc2ccc(C(C)=O)cc2)cc1` [Compound 352, 1-(4-acetylphenyl)-3-(4-propylphenyl)urea] reads below 2000 nM.
In the case of `CC(=O)c1ccc(NC(=O)Nc2cccc(Br)c2)cc1` [Compound 353, 1-(4-acetylphenyl)-3-(3-bromophenyl)urea] it was below 2000 nM.
Turning to `CCOc1cccc(NC(=O)Nc2ccc(C)cc2)c1` [Compound 354, 1-(3-ethoxyphenyl)-3-(4-methylphenyl)urea], the IC50 was below 2000 nM.
`CCOc1cccc(NC(=O)Nc2cccc(F)c2)c1` [Compound 355, 1-(3-ethoxyphenyl)-3-(3-fluorophenyl)urea]: the half-maximal inhibitory concentration (IC50) was below 2000 nM.
In the case of `CCOc1cccc(NC(=O)Nc2ccc(F)cc2)c1` [Compound 356, 1-(3-ethoxyphenyl)-3-(4-fluorophenyl)urea] it was below 2000 nM; in that of `CCOc1ccc(NC(=O)Nc2cccc(F)c2)cc1` [Compound 357, 1-(4-ethoxyphenyl)-3-(3-fluorophenyl)urea], below 2000 nM.
Take `CCOc1ccc(NC(=O)Nc2ccc(F)cc2)cc1` [Compound 358, 1-(4-ethoxyphenyl)-3-(4-fluorophenyl)urea]: the IC50 is below 2000 nM.
In the case of `COCc1ccc(NC(=O)Nc2ccc(C)cc2)cc1` [Compound 359, 1-[4-(methoxymethyl)phenyl]-3-(4-methylphenyl)urea] it was below 2000 nM.
The result for `COCc1ccc(NC(=O)Nc2cccc(F)c2)cc1` [Compound 360, 1-(3-fluorophenyl)-3-[4-(methoxymethyl)phenyl]urea] reads below 2000 nM; that for `CCCOc1ccc(NC(=O)Nc2cccc(F)c2)cc1` [Compound 361, 1-(3-fluorophenyl)-3-(4-propoxyphenyl)urea], below 2000 nM; that for `CCCOc1ccc(NC(=O)Nc2ccc(F)cc2)cc1` [Compound 362, 1-(4-fluorophenyl)-3-(4-propoxyphenyl)urea], below 2000 nM.
The result for `CC(C)Oc1cccc(NC(=O)Nc2cccc(F)c2)c1` [Compound 363, 1-(3-fluorophenyl)-3-(3-isopropoxyphenyl)urea] reads below 2000 nM; that for `CC(C)Oc1cccc(NC(=O)Nc2ccc(F)cc2)c1` [Compound 364, 1-(4-fluorophenyl)-3-(3-isopropoxyphenyl)urea], below 2000 nM; that for `Cc1cccc(NC(=O)Nc2ccc(OC(C)C)cc2)c1` [Compound 365, 1-(4-isopropoxyphenyl)-3-(3-methylphenyl)urea], below 2000 nM.
Turning to `Cc1ccc(NC(=O)Nc2ccc(OC(C)C)cc2)cc1` [Compound 366, 1-(4-isopropoxyphenyl)-3-(4-methylphenyl)urea], the IC50 was below 2000 nM.
The result for `CC(C)Oc1ccc(NC(=O)Nc2cccc(F)c2)cc1` [Compound 367, 1-(3-fluorophenyl)-3-(4-isopropoxyphenyl)urea] reads below 2000 nM.
In the case of `CC(C)Oc1ccc(NC(=O)Nc2ccc(F)cc2)cc1` [Compound 368, 1-(4-fluorophenyl)-3-(4-isopropoxyphenyl)urea] it was below 2000 nM; in that of `Cc1cccc(NC(=O)Nc2cccc(OC(F)F)c2)c1` [Compound 369, 1-[3-(difluoromethoxy)phenyl]-3-(3-methylphenyl)urea], below 2000 nM.
In the case of `Cc1ccc(NC(=O)Nc2cccc(OC(F)F)c2)cc1` [Compound 370, 1-[3-(difluoromethoxy)phenyl]-3-(4-methylphenyl)urea] it was below 2000 nM; in that of `O=C(Nc1cccc(F)c1)Nc1cccc(OC(F)F)c1` [Compound 371, 1-[3-(difluoromethoxy)phenyl]-3-(3-fluorophenyl)urea], below 2000 nM.
For `O=C(Nc1ccc(F)cc1)Nc1cccc(OC(F)F)c1` [Compound 372, 1-[3-(difluoromethoxy)phenyl]-3-(4-fluorophenyl)urea], the IC50 was below 2000 nM.
In the case of `O=C(Nc1ccc(F)cc1)Nc1ccc(OC(F)F)cc1` [Compound 373, 1-[4-(difluoromethoxy)phenyl]-3-(4-fluorophenyl)urea] it was below 2000 nM; in that of `CCOc1cccc(NC(=O)Nc2ccccc2)c1` [Compound 374, 1-(3-ethoxyphenyl)-3-phenylurea], below 2000 nM; in that of `CC(C)Oc1ccc(NC(=O)Nc2ccccc2)cc1` [Compound 375, 1-(4-isopropoxyphenyl)-3-phenylurea], below 2000 nM.
Consider `O=C(Nc1ccccc1)Nc1cccc(OC(F)F)c1` [Compound 376, 1-[3-(difluoromethoxy)phenyl]-3-phenylurea], for which the half-maximal inhibitory concentration (IC50) is below 2000 nM.
In the case of `Cc1ccccc1NC(=O)Nc1cccc(OC(F)F)c1` [Compound 377, 1-[3-(difluoromethoxy)phenyl]-3-(2-methylphenyl)urea] it was below 2000 nM; in that of `CCc1ccccc1NC(=O)Nc1cccc(OC(F)F)c1` [Compound 378, 1-[3-(difluoromethoxy)phenyl]-3-(2-ethylphenyl)urea], below 2000 nM.
Turning to `CCc1ccc(NC(=O)Nc2ccc(OC)cc2)cc1` [Compound 382, 1-(4-ethylphenyl)-3-(4-methoxyphenyl)urea], the half-maximal inhibitory concentration (IC50) is below 2000 nM.
Turning to `COc1ccc(NC(=O)Nc2ccc(Cl)cc2)cc1` [Compound 383, 1-(4-chlorophenyl)-3-(4-methoxyphenyl)urea], the IC50 is below 2000 nM.
In the case of `CCOc1cccc(NC(=O)Nc2cccc(CC)c2)c1` [Compound 384, 1-(3-ethoxyphenyl)-3-(3-ethylphenyl)urea] it was below 2000 nM.
The result for `CCOc1cccc(NC(=O)Nc2ccc(CC)cc2)c1` [Compound 385, 1-(3-ethoxyphenyl)-3-(4-ethylphenyl)urea] reads below 2000 nM.
In the case of `CCOc1cccc(NC(=O)Nc2ccc(Cl)cc2)c1` [Compound 386, 1-(4-chlorophenyl)-3-(3-ethoxyphenyl)urea] it was below 2000 nM.
Take `CCOc1ccc(NC(=O)Nc2cccc(CC)c2)cc1` [Compound 387, 1-(4-ethoxyphenyl)-3-(3-ethylphenyl)urea]: the IC50 was below 2000 nM.
The result for `CCOc1ccc(NC(=O)Nc2ccc(CC)cc2)cc1` [Compound 388, 1-(4-ethoxyphenyl)-3-(4-ethylphenyl)urea] reads below 2000 nM.
The result for `CCOc1ccc(NC(=O)Nc2cccc(Cl)c2)cc1` [Compound 389, 1-(3-chlorophenyl)-3-(4-ethoxyphenyl)urea] reads below 2000 nM; that for `CCOc1ccc(NC(=O)Nc2ccc(Cl)cc2)cc1` [Compound 390, 1-(4-chlorophenyl)-3-(4-ethoxyphenyl)urea], below 2000 nM.
In the case of `CCc1ccc(NC(=O)Nc2cccc(COC)c2)cc1` [Compound 391, 1-(4-ethylphenyl)-3-[3-(methoxymethyl)phenyl]urea] it was below 2000 nM.
Take `CCc1cccc(NC(=O)Nc2ccc(COC)cc2)c1` [Compound 392, 1-(3-ethylphenyl)-3-[4-(methoxymethyl)phenyl]urea]: the IC50 is below 2000 nM.
In the case of `CCc1ccc(NC(=O)Nc2ccc(COC)cc2)cc1` [Compound 393, 1-(4-ethylphenyl)-3-[4-(methoxymethyl)phenyl]urea] it was below 2000 nM; in that of `COCc1ccc(NC(=O)Nc2cccc(Cl)c2)cc1` [Compound 394, 1-(3-chlorophenyl)-3-[4-(methoxymethyl)phenyl]urea], below 2000 nM.
In the case of `COCc1ccc(NC(=O)Nc2ccc(Cl)cc2)cc1` [Compound 395, 1-(4-chlorophenyl)-3-[4-(methoxymethyl)phenyl]urea] it was below 2000 nM; in that of `CCCOc1ccc(NC(=O)Nc2cccc(CC)c2)cc1` [Compound 396, 1-(3-ethylphenyl)-3-(4-propoxyphenyl)urea], below 2000 nM.
